Laboratory results taken from article PMC8645336, “Benchmarking a highly selective USP30 inhibitor for enhancement of mitophagy and pexophagy” (Life Science Alliance, 2021).

Key:
USP5 = biological target: T1, USP5 (Homo sapiens, UniProt P45974); assay: biochemical; set-up: Ubiquigent DUB profiler selectivity panel, remaining enzyme activity as % of control; details: read-out: % of control remaining
T1 sequence (P45974 1-858): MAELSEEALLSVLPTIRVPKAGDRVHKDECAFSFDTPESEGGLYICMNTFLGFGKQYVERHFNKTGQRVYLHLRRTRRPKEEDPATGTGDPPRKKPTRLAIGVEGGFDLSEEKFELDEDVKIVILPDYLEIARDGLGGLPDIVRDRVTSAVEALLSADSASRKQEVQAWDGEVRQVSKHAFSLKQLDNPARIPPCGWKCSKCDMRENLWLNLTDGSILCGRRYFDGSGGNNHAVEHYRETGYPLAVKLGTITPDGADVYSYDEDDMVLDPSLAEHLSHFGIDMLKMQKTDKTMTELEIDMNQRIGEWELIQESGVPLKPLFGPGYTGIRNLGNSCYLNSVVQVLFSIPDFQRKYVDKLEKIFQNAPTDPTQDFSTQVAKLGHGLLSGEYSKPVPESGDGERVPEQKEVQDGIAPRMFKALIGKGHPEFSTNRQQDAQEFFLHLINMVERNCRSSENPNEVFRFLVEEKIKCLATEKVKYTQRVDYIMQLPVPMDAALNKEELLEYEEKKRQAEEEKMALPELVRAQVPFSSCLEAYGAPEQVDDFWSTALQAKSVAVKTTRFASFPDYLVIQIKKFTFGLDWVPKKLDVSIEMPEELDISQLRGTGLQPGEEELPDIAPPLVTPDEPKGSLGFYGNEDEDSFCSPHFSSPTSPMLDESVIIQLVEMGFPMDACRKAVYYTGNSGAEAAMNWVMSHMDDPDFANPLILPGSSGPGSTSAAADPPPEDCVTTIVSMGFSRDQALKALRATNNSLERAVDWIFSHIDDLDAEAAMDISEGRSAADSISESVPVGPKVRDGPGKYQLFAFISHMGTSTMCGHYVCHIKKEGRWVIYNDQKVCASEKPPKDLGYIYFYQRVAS
Procedure, shortened: (§1)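 CMPD-39 selectivity was profiled at 1-100 μM across >40 DUBs. Cellular engagement used 2 h CMPD-39 pretreatment, then HA-Ub-PA probe for 10 min at 37°C, with USP30 band shift on immunoblot. TOMM20 ubiquitylation was blotted in YFP-PRKN hTERT-RPE1 cells after 1 h antimycin A/oligomycin A (1 μM each).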

USP28 = biological target: T2, USP28 (Homo sapiens, UniProt Q96RU2); assay: biochemical; set-up: Ubiquigent DUB profiler selectivity panel, remaining enzyme activity as % of control; details: read-out: % of control remaining
T2 sequence (Q96RU2 1-1077): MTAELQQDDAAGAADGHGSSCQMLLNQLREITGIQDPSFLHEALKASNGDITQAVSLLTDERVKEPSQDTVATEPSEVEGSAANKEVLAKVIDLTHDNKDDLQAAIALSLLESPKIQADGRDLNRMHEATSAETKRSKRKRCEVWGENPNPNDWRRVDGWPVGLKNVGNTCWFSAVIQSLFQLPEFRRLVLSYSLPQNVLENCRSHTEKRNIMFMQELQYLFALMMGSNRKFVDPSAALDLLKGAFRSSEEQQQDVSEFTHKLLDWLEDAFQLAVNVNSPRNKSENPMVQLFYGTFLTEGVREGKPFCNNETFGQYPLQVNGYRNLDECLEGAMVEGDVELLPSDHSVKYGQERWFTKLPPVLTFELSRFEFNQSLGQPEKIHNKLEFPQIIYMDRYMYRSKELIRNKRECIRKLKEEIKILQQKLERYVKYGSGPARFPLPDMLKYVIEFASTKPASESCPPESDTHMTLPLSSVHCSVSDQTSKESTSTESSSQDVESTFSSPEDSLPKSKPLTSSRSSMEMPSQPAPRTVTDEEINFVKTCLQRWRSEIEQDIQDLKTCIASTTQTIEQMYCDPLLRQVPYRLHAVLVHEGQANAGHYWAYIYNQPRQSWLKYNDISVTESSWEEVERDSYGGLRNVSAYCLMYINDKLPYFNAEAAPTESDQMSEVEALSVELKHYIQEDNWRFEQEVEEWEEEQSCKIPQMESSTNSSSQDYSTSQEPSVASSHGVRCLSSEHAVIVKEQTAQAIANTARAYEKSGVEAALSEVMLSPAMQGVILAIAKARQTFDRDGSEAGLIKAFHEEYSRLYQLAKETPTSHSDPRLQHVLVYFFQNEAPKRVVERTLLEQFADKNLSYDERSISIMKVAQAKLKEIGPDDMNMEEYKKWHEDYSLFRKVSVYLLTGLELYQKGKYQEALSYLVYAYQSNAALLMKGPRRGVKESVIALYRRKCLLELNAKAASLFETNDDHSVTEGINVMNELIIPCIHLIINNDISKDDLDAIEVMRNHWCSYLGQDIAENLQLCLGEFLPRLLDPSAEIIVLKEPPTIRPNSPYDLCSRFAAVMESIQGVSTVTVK
Procedure, shortened: as §1

CC(C)(C)NS(=O)(=O)c1ccc(NC(=O)[C@H](Cc2ccccc2)NC(=O)c2ccc(F)cc2)cc1 [compound 39, CMPD-39]
remaining activity at 1 µM (USP5): 104% | remaining activity at 10 µM (USP5): 101% | remaining activity at 100 µM (USP5): 106% | remaining activity at 1 µM (USP28): 96.5% | remaining activity at 10 µM (USP28): 94.2% | remaining activity at 100 µM (USP28): 102%
